pIC50: −log10 of the molar value.

As usually defined, the pIC50 is the IC50 on a negative log10 scale, so that one unit is a factor of ten. Higher therefore signals a low IC50.

KIF18A, sequence (Q8NI77 whole entry): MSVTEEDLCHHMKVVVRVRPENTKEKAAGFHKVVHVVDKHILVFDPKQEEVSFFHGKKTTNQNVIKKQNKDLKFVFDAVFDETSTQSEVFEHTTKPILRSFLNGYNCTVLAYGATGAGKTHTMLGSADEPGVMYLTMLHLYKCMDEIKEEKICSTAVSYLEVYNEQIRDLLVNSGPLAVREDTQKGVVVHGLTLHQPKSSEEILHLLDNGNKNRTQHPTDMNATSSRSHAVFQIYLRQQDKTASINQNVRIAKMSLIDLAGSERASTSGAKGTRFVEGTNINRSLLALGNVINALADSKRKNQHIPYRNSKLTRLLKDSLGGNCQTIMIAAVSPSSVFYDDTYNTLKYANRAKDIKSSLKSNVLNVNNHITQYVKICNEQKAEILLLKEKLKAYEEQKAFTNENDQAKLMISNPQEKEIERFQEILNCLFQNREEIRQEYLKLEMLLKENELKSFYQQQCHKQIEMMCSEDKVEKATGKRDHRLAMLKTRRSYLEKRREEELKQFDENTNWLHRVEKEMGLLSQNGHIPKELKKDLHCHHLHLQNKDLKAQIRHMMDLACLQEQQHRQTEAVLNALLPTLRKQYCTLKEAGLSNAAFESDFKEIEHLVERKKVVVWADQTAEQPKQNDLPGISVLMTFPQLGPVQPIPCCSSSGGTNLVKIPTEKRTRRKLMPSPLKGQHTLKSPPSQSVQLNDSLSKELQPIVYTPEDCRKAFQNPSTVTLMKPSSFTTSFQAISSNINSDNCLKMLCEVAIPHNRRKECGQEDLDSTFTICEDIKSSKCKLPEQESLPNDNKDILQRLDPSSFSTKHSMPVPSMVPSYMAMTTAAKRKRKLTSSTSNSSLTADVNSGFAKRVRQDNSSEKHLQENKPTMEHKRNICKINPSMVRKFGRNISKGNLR
KIF18A, sequence (P02550 whole entry partner): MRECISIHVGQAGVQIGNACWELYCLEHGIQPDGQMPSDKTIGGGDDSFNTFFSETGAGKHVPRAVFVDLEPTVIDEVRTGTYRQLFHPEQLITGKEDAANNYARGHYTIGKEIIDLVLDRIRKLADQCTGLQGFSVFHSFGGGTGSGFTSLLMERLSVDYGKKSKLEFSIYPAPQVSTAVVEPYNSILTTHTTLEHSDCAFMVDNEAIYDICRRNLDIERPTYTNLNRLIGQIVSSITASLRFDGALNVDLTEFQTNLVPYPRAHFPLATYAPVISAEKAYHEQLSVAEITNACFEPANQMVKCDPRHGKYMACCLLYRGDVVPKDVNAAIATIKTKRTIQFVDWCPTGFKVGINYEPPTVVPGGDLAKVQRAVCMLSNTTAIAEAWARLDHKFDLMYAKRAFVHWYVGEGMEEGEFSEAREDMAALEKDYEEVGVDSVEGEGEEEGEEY
KIF18A, sequence (P02554 whole entry partner): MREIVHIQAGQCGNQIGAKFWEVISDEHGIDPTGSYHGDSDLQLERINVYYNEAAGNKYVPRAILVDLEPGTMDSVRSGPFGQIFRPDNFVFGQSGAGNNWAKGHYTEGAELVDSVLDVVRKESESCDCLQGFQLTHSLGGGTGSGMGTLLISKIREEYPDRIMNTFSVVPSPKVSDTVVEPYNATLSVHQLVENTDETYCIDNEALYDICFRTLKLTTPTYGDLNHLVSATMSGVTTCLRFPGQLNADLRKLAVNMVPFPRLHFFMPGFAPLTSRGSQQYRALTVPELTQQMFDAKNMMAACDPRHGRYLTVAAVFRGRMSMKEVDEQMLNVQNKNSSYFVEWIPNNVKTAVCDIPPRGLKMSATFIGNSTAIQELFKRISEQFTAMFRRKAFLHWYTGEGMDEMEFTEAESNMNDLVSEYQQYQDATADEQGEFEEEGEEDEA

The test has as its target KIF18A (Homo sapiens (Human), UniProt Q8NI77). The test is described as follows: KIF18A ATPase activity under tubulin stimulation (ADP-Glo assay). It counts as biochemical. The note with it: KIF18A 30 nM, ATP 150 μM, pig microtubules. On the procedure: This experiment assesses the inhibitory effect of the compounds of the present disclosure on the KIF18A target according to the IC50 values by measuring the KIF18A ATPase activity under tubulin stimulation with the presence of the compounds.
• 1. Preparation of 30 mL of reaction buffer: • (1) 450 μL 1M Tris-HCl (pH=7.5)+300 μL 1M MgCl2+30 μL 10% Pluronic F-68 (ThermoFisher, 24040032-100 ml); • (2) adjusting pH to 7.5, and adding water to adjust the volume to 30 mL. • 2. Preparation of a 5 mg/mL pig microtubule (Microtubules; MT) (Cytoskeleton Inc, MT002) stock solution: • (1) 10 mL PM buffer=150 μL 1 M PIPES (pH 7.0)+20 μL 0.5 mM MgCl2+100 μL 2 mM Taxol (Cytoskeleton Inc, TXD01)+9730 μL water. • (2) MT ([…]): Adding 100 μL PM buffer to prepare a 5 mg/mL stock solution. Keeping the MT (Cytoskeleton Inc, MT002) at room temperature for 10-15 minutes, gently mixing and storing same at −80° C. • 3. Preparation of 2 mL of kinase buffer: 2 mL reaction buffer+1 μL 2 mM Taxol (Cytoskeleton Inc, TXD01)+12 μL 5 mg/mL MT (Cytoskeleton Inc, MT002). • 4. Preparation of 2×KIF18A (30 nM) (ChemPartner, CPB-P22-31645) working solution: 2.4 μL 10 μM KIF18A (ChemPartner, CPB-P22-31645)+800 μL 1× kinase buffer. • 5. Preparation of 2×ATP (150 μM) (Promega, G9101) working solution: 12 μL 10 mM ATP+800 μL 1× kinase buffer. • 6. 25 nL of compound was transferred to a 384-well plate using Echo650. • 7. 2.5 μL of 2×KIF18A from Step 4 (final concentration of 30 nM) was added to the 384-well plate and the plate was incubated at 25° C. for 15 minutes. • 8. 2.5 μL of 2×ATP from Step 5 (final concentration of 150 μM) was added to the 384-well plate and the plate was incubated at 25° C. for 15 minutes. • 9. 5 μL ADP-Glo™ Reagent (Promega, G9101) was added to the 384-well plate and the plate was incubated at 25° C. for 40 minutes. • 10. 10 μL of kinase detection reagent (Promega, G9101) was added to the 384-well plate and the plate was incubated at 25° C. for 40 minutes. • 11. Luminescence values were measured using the EnVision Xcite Multilabel Reader (PerkinElmer, 2105-0020).
On the technique in general: ADP-Glo first removes unused ATP, then detects ADP through luciferase.
`COC1c2cc3c(NC(=O)c4ccc(NS(=O)(=O)CCO)cc4N4CCC5(CC4)CC5)cccc3n2CCC1(F)F` (single isomer, unassigned) [Compound 385-P1, N-(8,8-difluoro-9-(methoxy-d3)-6,7,8,9-tetrahydropyridino[1,2-a]indol-1-yl)-4-((2-hydroxyethyl)sulfonamido)-2-(6-azaspiro[2.5]oct-6-yl)benzamide]: the negative logarithm of the IC50 (pIC50) was 6.30 to 7.30.

For the molecule `COC1c2cc3c(NC(=O)c4ccc(NS(=O)(=O)CCO)cc4N4CCC5(CC4)CC5)cccc3n2CCC1(F)F` (single isomer, unassigned) [Compound 385-P2, N-(8,8-difluoro-9-(methoxy-d3)-6,7,8,9-tetrahydropyridino[1,2-a]indol-1-yl)-4-((2-hydroxyethyl)sulfonamido)-2-(6-azaspiro[2.5]oct-6-yl)benzamide], the pIC50 is 6.30 to 7.30. `CN1CCc2c(NC(=O)c3ccc(NS(=O)(=O)CCO)cc3N3CCC4(CC3)CC4)cccc21` [Example 6, 4-(N-(2-hydroxyethyl)sulfonamido)-N-(1-methylindolin-4-yl)-2-(6-azaspiro[2.5]octan-6-yl)benzamide]: the pIC50 was 6.30 to 7.30.

Regarding `CN1CCCc2c(NC(=O)c3ccc(NS(=O)(=O)CCO)cc3N3CCC4(CC3)CC4)ccnc21` [Example 7, 4-(2-hydroxyethyl)sulfonamido-N-(8-methyl-5,6,7,8-tetrahydro-1,8-naphthyridin-4-yl)-2-(6-azaspiro[2.5]octan-6-yl)benzamide], the pIC50 was 6.30 to 7.30. Molecule `O=C(Nc1ccnc2c1CCCN2CC1CC1)c1ccc(NS(=O)(=O)CCO)cc1N1CCC2(CC1)CC2` [Example 8, 4-(2-hydroxyethyl)sulfonamido-N-(8-cyclopropylmethyl-5,6,7,8-tetrahydro-1,8-naphthyridin-4-yl)-2-(6-azaspiro[2.5]octan-6-yl)benzamide] gave a negative logarithm of the IC50 (pIC50) of 6.30 to 7.30. For `Cn1ccc2c(NC(=O)c3ccc(NS(=O)(=O)CCO)cc3N3CCC4(CC3)CC4)cccc21` [Example 10, 4-((2-hydroxyethyl)sulfonamido)-N-(1-methyl-1H-indol-4-yl)-2-(6-azaspiro[2.5]octan-6-yl)benzamide] the value was 6.30 to 7.30; for `CN1CCCCc2c(NC(=O)c3ccc(NS(=O)(=O)CCO)cc3N3CCC4(CC3)CC4)cccc21` [Example 11, 4-((2-hydroxyethyl)sulfonamido)-N-(1-methyl-2,3,4,5-tetrahydro-1H-benzo[b]azepin-6-yl)-2-(6-azaspiro[2.5]octan-6-yl)benzamide], 5.30 to 6.30; for `O=C(Nc1cccc2c1CCCCN2CC1CC1)c1ccc(NS(=O)(=O)CCO)cc1N1CCC2(CC1)CC2` [Example 12], 5.30 to 6.30. For the molecule `O=C(Nc1cccc2c1CCN2CC1CCC1)c1ccc(NS(=O)(=O)CCO)cc1N1CCC2(CC1)CC2` [Example 14, N-(1-(cyclobutylmethyl)dihydroindol-4-yl)-4-((2-hydroxyethyl)sulfonamido)-2-(6-azaspiro[2.5]octan-6-yl)benzamide], the negative logarithm of the IC50 (pIC50) is 6.30 to 7.30. For `O=C(Nc1cccc2c1CCN2CC1CCCC1)c1ccc(NS(=O)(=O)CCO)cc1N1CCC2(CC1)CC2` [Example 15, N-(1-(cyclopentylmethyl)dihydroindol-4-yl)-4-((2-hydroxyethyl)sulfonamido)-2-(6-azaspiro[2.5]oct-6-yl)benzamide] the value was 5.30 to 6.30. `O=C(Nc1cccc2c1C1(CC1)C(=O)N2CC1CC1)c1ccc(NS(=O)(=O)CCO)cc1N1CCC2(CC1)CC2` [Example 17, N-(1′-(cyclopropylmethyl)-2′-oxospiro[cyclopropane-1,3′-indolin]-4′-yl)-4-((2-hydroxyethyl)sulfonamido)-2-(6-azaspiro[2.5]octan-6-yl)benzamide] had a pIC50 of less than 5.30. In turn, `O=C(Nc1cnc2n1CCCC2)c1ccc(NS(=O)(=O)CCO)cc1N1CCC2(CC1)CC2` [Example 19, 4-((2-hydroxyethyl)sulfonamido)-2-(6-azaspiro[2.5]octan-6-yl)-N-(5,6,7,8-tetrahydroimidazo[1,2-a]pyridin-3-yl)benzamide] gave a negative-log IC50 (pIC50) of less than 5.30. `O=C(Nc1ccnc(N2CCC(F)(F)CC2)c1)c1ccc(NS(=O)(=O)CCO)cc1OC1CCCCC1` [Example 22] gave a negative logarithm of the IC50 (pIC50) of 6.30 to 7.30.

With `O=C(Nc1ccnc(N2CCC(F)(F)CC2)c1)c1ccc(NS(=O)(=O)CCO)cc1OC1CCOCC1` [Example 23, N-(2-(4,4-difluoropiperidin-1-yl)pyridin-4-yl)-4-((2-hydroxyethyl)sulfonamide)-2-((tetrahydro-2H-pyran-4-yl)oxy)benzamide], the negative-log IC50 (pIC50) was less than 5.30. The molecule `O=C(Nc1ccnc(N2CCC(F)(F)CC2)c1)c1ccc(NS(=O)(=O)CCO)cc1OC1CCC(F)(F)CC1` [Example 24, 2-((4,4-difluorocyclohexyl)oxy)-N-(2-(4,4-difluoropiperidin-1-yl)pyridin-4-yl)-4-((2-hydroxyethyl)sulfonamide)benzamide] had a negative logarithm of the IC50 (pIC50) of 5.30 to 6.30. With `O=C(Nc1cccc2c1CCN2CC1CC1)c1ccc(NS(=O)(=O)CCO)c2c1OCCO2` [Example 25, N-(1-(cyclopropylmethyl)indolin-4-yl)-8-((2-hydroxyethyl)sulfonamido)-2,3-dihydrobenzo[b][1,4]dioxine-5-carboxamide] the figure was less than 5.30; with `Cc1cc(NC(=O)c2ccc(NS(=O)(=O)CCO)cc2OC2CC3(CCC3)C2)nc(N2CCC(F)(F)CC2)n1` [Example 26, N-(2-(4,4-difluoropiperidin-1-yl)-6-methylpyrimidin-4-yl)-4-((2-hydroxyethyl)sulfonamido)-2-(spiro[3.3]heptan-2-yloxy)benzamide], 6.30 to 7.30. On to `O=C(Nc1cccc2c1CCN2CC1CC1)c1ccc(NS(=O)(=O)CCO)cc1OC1CCCCC1` [Example 27, 2-(cyclohexyloxy)-N-(1-(cyclopropylmethyl)indolin-4-yl)-4-((2-hydroxyethyl)sulfonamide)benzamide], for which the pIC50 is 5.30 to 6.30. `O=C(Nc1ccnc(N2CCC(F)(F)CC2)c1)c1ccc(NS(=O)(=O)CCO)cc1OC1CCCC1` [Example 28, 2-(cyclopentoxy)-N-(2-(4,4-difluoropiperidin-1-yl)pyridin-4-yl)-4-((2-hydroxyethyl)sulfonamide)benzamide] showed a negative-log IC50 (pIC50) of 5.30 to 6.30. As for `O=C(Nc1cccc2c1CCN2CC1CC1)c1ccc(NS(=O)(=O)CCO)cc1OC1CCC(F)(F)CC1` [Example 29, N-(1-(cyclopropylmethyl)indolin-4-yl)-2-((4,4-difluorocyclohexyl)oxy)-4-((2-hydroxyethyl)sulfonamide)benzamide], the pIC50 was less than 5.30.

In turn, `O=C(Nc1cccc2c1CCN2CC1CC1)c1ccc(NS(=O)(=O)CCO)cc1OC1CCCC1` [Example 30, 2-(cyclopentoxy)-N-(1-(cyclopropylmethyl)indolin-4-yl)-4-((2-hydroxyethyl)sulfonamide)benzamide] showed a pIC50 of 5.30 to 6.30. `O=C(Nc1ccnc2c1CCN2CC1CC1)c1ccc(NS(=O)(=O)CCO)cc1N1CCC2(CC1)CC2` [Example 32, N-(1-(cyclopropylmethyl)-2,3-dihydro-1H-pyrrolo[2,3-b]pyridin-4-yl)-4-((2-hydroxyethyl)sulfanilamido)-2-(6-azaspiro[2.5]octan-6-yl)4-benzamide]: the pIC50 was 6.30 to 7.30. For `O=C(Nc1ccnc2c1ccn2CC1CC1)c1ccc(NS(=O)(=O)CCO)cc1N1CCC2(CC1)CC2` [Example 33, N-(1-(cyclopropylmethyl)-1H-pyrrolo[2,3-b]pyridin-4-yl)-4-((2-hydroxyethyl)sulfanilamido)-2-(6-azaspiro[2.5]octan-6-yl)4-benzamide] the value was no less than 7.30.
